Here are results for one compound from patent US9938316B2, “Selective inhibitors of α2 isoform of Na,K-ATPase and use thereof for reduction of intra-ocular pressure and as cardiotonic agents” (priority 2013, dated 2018).

What all share (assay): biochemical
In assay [1] the target is T1, Na,K-ATPase α2β2 isoform complex (Homo sapiens, UniProt P50993).
T1 construct: made in house; host or cells: Pichia pastoris SMD1165
The source says:
(§1) Human β1, β2 and β3 were cloned into the pHIL-D2 expression vector containing the human α1 or α2. pHIL-D2 expression vectors containing porcine (p) α1, human (h) α1 or human α2 with Hisx10 tagged porcine β1 were previously generated (7, 9). Human β1 (Accession: P05026), human β2 (Accession: P14415) and human β3 (Accession: […]) cDNAs in pSD5 vector were a gift from K. Geering Univ. Lausanne Switzerland. The open reading frames and flanking regions of hβ1, hβ2 and hβ3 (in pSD5) were amplified separately by polymerase chain reaction (PCR) using synthetic primers containing BglII and SalI cleavage sites. Each one of the amplified fragments were digested with BglII and SalI and ligated to BglII and SalI treated plasmid pHIL-D2-(pα1/His10pβ1) to generate pHIL-D2 (pα1/His10hβ1or2or3). hβ1, hβ2 and hβ3 containing fragments were excised from pHIL-D2-(pα1/His10hβ1or2or3) and subcloned into pHIL-D2-(hα1/His10pβ1) or pHIL-D2-(hα2/His10pβ1) to produce pHIL-D2-(hα1/His10hβ1or2or3) and pHIL-D2-(hα2/His10hβ1or2or3). The newly created plasmids were analyzed for correct integration and correct sequence of the insert by restriction enzymatic digestions and sequencing. DNA of each construct was prepared in large quantities in E. coli XL-1 Blue for Pichia pastoris transformation.
(§2) Inhibition of Na,K-ATPase activity of the detergent-soluble α1β1, α2β1, and α3β1 complexes by CG's was determined as described (6) using either the αβ or αβFXYD1 complexes. […] The K0.5K was estimated by varying K concentration in a medium containing a fixed total K+choline chloride of 60 mM, and constant NaCl of 140 mM. Curves were fitted to the Hill function v=Vmax*[S]^n/([S]^n+K^n), where S is the K concentration, n is the Hill coefficient and K^n is K0.5K. For comparison of different curves the ratio v/Vmax for each curve was calculated and replotted. In experiments to assess inhibition of Na,K-ATPase activity by cardiac glycosides of the present invention, the percent inhibition VCG/V0 was calculated and Ki values were obtained by fitting the data to the function VCG/V0=Ki/([CG]+Ki)+ c. Inhibition was estimated in 3-8 separate experiments and average Ki values ±SEM were calculated. Significance of differences between Kiα1 and Kiα2 was calculated by the unpaired Student's t-test (p values). […] P values <0.05 were considered significant.

Assay [2] relates to Na,K-ATPase α2β3 isoform complex. Also noted: species or system human. To be noted: ratio of Ki, Table 6.
Description: as §1, §2

The target in assay [3] is T2, Na,K-ATPase α2β3 isoform complex (Homo sapiens, UniProt P50993).
T2 construct: made in house; host or cells: Pichia pastoris SMD1165
Description: as §1, §2

In assay [4] the test system is Na,K-ATPase α2β2 isoform complex. Set-up: species or system human. The conditions noted are these: ratio of Ki, Table 6.
Description: as §1, §2

What is called Ki is a measure of affinity in units of concentration, obtained from inhibition or displacement. A low value points to higher affinity.

Regarding `CC1CN(C)CCC(OC2C(O)CC(OC3C(O)CC(OC4CCC5(C)C(CCC6C5CC(O)C5(C)C(C7=CC(=O)OC7)CCC65O)C4)OC3C)OC2C)O1` (stereo not shown) [DMe], the inhibitory constant (Ki) in assay [1] stood at 20.4 ± 1.8 nM; in assay [3], 10.8 ± 0.6 nM. For the same compound, the “Selectivity α1β1/α2β3” value in assay [2] is 9.5. The “Selectivity α1β1/α2/β2” value in assay [4] was 5.07.
